Earlier results on three compounds are cited in patent US20240226070A1, “URAT1 INHIBITOR, PHARMACEUTICAL COMPOSITIONS AND USES THEREOF” (UR-1 Therapeutics, Inc., priority 2021, published 2024).

The conditions of data set [1]: oral administration, 1.3 mg/kg.
The target in data set [2] is T1, ATP-binding cassette subfamily G member 2 (ABCG2) (Homo sapiens, UniProt Q9UNQ0).
T1 sequence (Q9UNQ0 1-655): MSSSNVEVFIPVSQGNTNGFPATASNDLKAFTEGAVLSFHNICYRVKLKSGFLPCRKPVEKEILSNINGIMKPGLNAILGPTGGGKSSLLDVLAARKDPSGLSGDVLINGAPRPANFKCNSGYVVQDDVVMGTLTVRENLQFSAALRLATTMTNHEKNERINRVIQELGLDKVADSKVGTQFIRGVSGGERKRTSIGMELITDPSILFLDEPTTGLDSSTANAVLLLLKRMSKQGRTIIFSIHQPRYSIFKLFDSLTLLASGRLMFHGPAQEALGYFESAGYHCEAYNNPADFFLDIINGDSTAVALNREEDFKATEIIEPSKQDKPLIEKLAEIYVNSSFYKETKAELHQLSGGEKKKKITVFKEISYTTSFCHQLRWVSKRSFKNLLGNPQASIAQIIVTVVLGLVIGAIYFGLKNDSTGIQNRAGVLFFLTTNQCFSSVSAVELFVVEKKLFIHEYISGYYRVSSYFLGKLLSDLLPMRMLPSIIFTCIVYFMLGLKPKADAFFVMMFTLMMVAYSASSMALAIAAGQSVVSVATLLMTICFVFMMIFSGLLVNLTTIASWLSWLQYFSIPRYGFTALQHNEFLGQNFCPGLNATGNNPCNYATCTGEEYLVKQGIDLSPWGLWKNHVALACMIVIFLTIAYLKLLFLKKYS
The conditions noted are these: in vitro.

Data set [3] deals with T2, OAT3 (Homo sapiens, UniProt Q8TCC7).
T2 sequence (Q8TCC7 1-542): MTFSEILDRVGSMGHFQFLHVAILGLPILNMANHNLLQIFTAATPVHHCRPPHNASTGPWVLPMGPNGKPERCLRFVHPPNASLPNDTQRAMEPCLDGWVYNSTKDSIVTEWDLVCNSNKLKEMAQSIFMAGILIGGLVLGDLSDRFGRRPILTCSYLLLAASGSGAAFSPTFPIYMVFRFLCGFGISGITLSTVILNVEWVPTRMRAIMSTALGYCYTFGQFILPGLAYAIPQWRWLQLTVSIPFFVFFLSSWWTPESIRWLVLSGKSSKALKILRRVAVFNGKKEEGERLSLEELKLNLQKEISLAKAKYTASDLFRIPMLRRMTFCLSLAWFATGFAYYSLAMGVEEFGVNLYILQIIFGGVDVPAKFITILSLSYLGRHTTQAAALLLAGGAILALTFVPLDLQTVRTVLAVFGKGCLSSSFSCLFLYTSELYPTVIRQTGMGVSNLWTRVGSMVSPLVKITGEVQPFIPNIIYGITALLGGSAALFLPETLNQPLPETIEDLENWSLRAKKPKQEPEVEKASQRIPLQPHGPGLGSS
The conditions noted are these: in vitro.

In data set [4] the target is T3, OAT1 (Homo sapiens, UniProt Q4U2R8).
T3 sequence (Q4U2R8 1-563): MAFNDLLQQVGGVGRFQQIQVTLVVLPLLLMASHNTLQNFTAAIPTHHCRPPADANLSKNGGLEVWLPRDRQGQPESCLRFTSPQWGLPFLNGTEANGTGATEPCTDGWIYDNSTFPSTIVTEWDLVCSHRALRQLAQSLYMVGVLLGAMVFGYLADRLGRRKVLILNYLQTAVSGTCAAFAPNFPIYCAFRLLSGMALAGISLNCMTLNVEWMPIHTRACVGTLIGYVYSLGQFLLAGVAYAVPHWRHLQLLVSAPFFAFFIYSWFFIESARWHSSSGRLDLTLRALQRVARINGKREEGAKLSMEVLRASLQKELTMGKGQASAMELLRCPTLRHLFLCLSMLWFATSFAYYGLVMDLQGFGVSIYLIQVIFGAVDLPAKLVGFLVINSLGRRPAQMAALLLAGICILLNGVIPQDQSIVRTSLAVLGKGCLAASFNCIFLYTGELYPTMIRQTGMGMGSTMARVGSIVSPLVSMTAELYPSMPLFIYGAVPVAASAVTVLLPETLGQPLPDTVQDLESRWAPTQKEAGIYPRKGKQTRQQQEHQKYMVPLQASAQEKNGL
Conditions: in vitro.

In data set [5] the test system is 5/6 Nx rats. Conditions: for effect on aggravation of CKD by hyperuricemia: 5/6 Nx rats dosed with potassium oxonate (750 mg/kg BW).

Take `O=C(c1cc(Cl)c(O)c(Cl)c1)N1CS(=O)(=O)c2ccccc21` [Dotinurad, 3-(3,5-dichloro-4-hydroxybenzoyl)-1,1-dioxo-2,3-dihydro-1,3-benzothiazole]: the peak concentration (Cmax) – broadly, the highest concentration seen after dosing – in data set [1] is 415 ng/mL. For the same compound, the oral bioavailability in data set [1] is recorded as 2.5%. Further, in data set [1] (Sprague-Dawley rats), the plasma clearance is 402.1 mL/min/kg. Moreover, in data set [1] (Sprague-Dawley rats), the “terminal elimination half-life (T1/2)” value is recorded as 1.88 h. Also, the IC50 (as a rule, the concentration needed to halve the response being measured) was 4.16 µM in data set [2], 1.32 µM in data set [3] and 4.08 µM in data set [4].
`Oc1ncnc2[nH]ncc12` [Allopurinol, allopurinol]: in data set [5], the “effect on aggravation of CKD by hyperuricemia” value is reported as “prevented the aggravation of the disease”.
`Cc1nc(-c2ccc(OCC(C)C)c(C#N)c2)sc1C(=O)O` [Febuxostat, febuxostat]: the “effect on aggravation of CKD by hyperuricemia” value in data set [5] was “prevented the aggravation of the disease”. For the same compound, the nephroprotection entry in data set [5] (5/6 rats that not received oxonic acid) was “significant nephroprotection”.
